Assay results as given in patent US3975538A, “Miticidally active compositions” (priority 1974, dated 1976).

How the values were obtained:
[1] = tested on: citrus red mite which show resistance to citrazon; assay: Experiment 5 test on citrazon-resistant citrus red mite; assay type: in vivo; details: Panonychus citri, 48 h, read-out: Death rate
Description: 100 female adults of citrus red mite which show resistance to citrazon were released on the leaves of the potted trifoliate orange (The pot: 9 cm in diameter). 20 cc each of the emulsions 100 prepared in Example 4, of compound No.4 and citrazon (mentioned before) for comparison of different concentrations was sprayed on one of the pots. After spraying the pots were kept in a kasten for 2 days and from the number of the surviving mites the death rates were calculated.

eggs of citrus red mite = assay: Experiment 4 ovicidal test (citrus red mite eggs on trifoliate orange); assay type: in vivo, Panonychus citri; details: 500 ppm in water, 20 cc spray, 7 days at 28°C, three repeats
Description: (§1) Criteria for evaluating effectiveness:
In this experiment, 20 female adults of the citrus red mite were released on the leaves of the potted trifoliate orange (15 cm in height). The pots were then placed in a air-conditioned greenhouse (28°C) for 2 days. Then the adults were removed from the plant and the eggs laid on the leaves were subjected to the ovicidal test. The number of the eggs on each plant was counted prior to the chemical application. […] 20 cc of each compound was sprayed on one of the plants. After spraying, the pots were returned to the air-conditioned greenhouse and kept there for 7 days. Then, by microscopic inspection, the numbers of unhatched eggs, the larvae which died after hatching, and the surviving larvae, respectively, on each plant were counted.

[2] = tested on: Kanzawa spider mite, Tetranychus kanzawai; assay: Experiment 3 miticidal test (Kanzawa spider mite on pea seedling); assay type: in vivo; details: female adults, 500 ppm in water, 20 cc spray, three repeats, read-out: Evaluation (mortality of mites)
Description: as §1
In this experiment, one day after approximately 50 female adults of the Kanzawa spider mite, Tetranychus kanzawai, were placed on the leaves of a seedling of the pea plant (5 days after germination), growing in pots (9 cm in diameter), the plant was sprayed with emulsion of the compound of Formula (I), diluted to 500 ppm in water. […] The test was repeated three times.

[3] = tested on: two-spotted spider mite, Tetranychus urticae; assay: Experiment 2 miticidal test (two-spotted spider mite on pea seedling); assay type: in vivo; details: 48 h, female adults, 500 ppm in water, 20 cc spray, 2 days at 28°C, read-out: Evaluation (mortality of mites)
Description: as §1
After spraying the pots were placed in a air-conditioned greenhouse (28°C) for 2 days.

[4] = tested on: citrus red mite, Panonychus citri; assay: Experiment 1 miticidal test (citrus red mite on potted lemon tree); assay type: in vivo; details: 240 h, larvae and adults, 200 ppm in water, 20 cc spray, 10 days at 28°C, read-out: Evaluation (mortality of mites and eggs)
Description: In this experiment, approximately 50 larvae and adults of the citrus red mite, Panonychus citri were first released on the leaves of a young lemon tree, with about 10 leaves, growing in a pot (9 cm in diameter). […] Two days later, each potted plant was sprayed with 20 cc of one of these preparations with a spray gun (under 1 kg/cm^2 pressure, 80 cm distance from the plant) in a spray chamber. After the spraying, the pots were placed in a air-conditioned greenhouse (28°C) for 10 days, the number of mites and eggs surviving on the leaves counted.

Q: How did the mortality at 12.5 ppm [1] turn out when `CCOC(=NOC(=O)c1ccccc1)c1c(OC)ccc(Cl)c1OC` [Citrazon, ethyl O-benzoyl-3-chloro-2,6-dimethoxybenzohydroxamate] was run?
A: 19.5%

Q: What about the mortality at 25 ppm [1] of the same compound?
A: 25.8%

Q: What about the mortality at 50 ppm [1] of the same compound?
A: 40.6%

Q: And the mortality at 100 ppm [1]?
A: 40.5%

Q: And the mortality at 200 ppm [1]?
A: 43.5%

Q: And the mortality at 400 ppm [1]?
A: 68%

Q: `CCOC(=NOC(=O)c1ccccc1)c1c(OC)ccc2ccccc12` [Control No. 1, ethyl O-benzoyl-2-methoxy-1-naphthohydroxamate] was tested. Which “Evaluation (ovicidal effectiveness)” value (eggs of citrus red mite) did it give?
A: - (49 % or less)

Q: And the mortality at 500 ppm [2]?
A: < 49%

Q: And the mortality at 500 ppm [3]?
A: < 49%

Q: What about the mortality at 200 ppm [4] of the same compound?
A: < 49%

Q: How did the “Evaluation (ovicidal effectiveness)” value (eggs of citrus red mite) turn out when `CCOC(=NOC(=O)c1ccc(C)cc1)c1c(OC)ccc2ccccc12` [Control No. 2, ethyl 0-(4-methylbenzoyl)-2-methoxy-1-naphthohydroxamate] was run?
A: - (49 % or less)

Q: What about the mortality at 500 ppm [2] of the same compound?
A: < 49%

Q: And the mortality at 500 ppm [3]?
A: < 49%

Q: What about the mortality at 200 ppm [4] of the same compound?
A: < 49%

Q: For `CCOC(=O)ON=C(OCC)c1c(OC)ccc2ccccc12` [compound 2, ethyl O-ethoxycarbonyl-2-methoxy-1-naphthohydroxamate], which “Evaluation (ovicidal effectiveness)” value (eggs of citrus red mite) is on record?
A: ++ (90 - 99 %)

Q: What about the mortality at 200 ppm [4] of the same compound?
A: 90 to 99%

Q: `CCOC(=NOC(=O)SC(C)C)c1c(OC)ccc2ccccc12` [compound 13, ethyl O-isopropylthiocarbonyl-2-methoxy-1-naphthohydroxamate] was tested. Which mortality at 200 ppm [4] did it give?
A: 100%
